In patent US11160788B2, “Caspase-1 inhibition and uses thereof for prevention and treatment of neurological conditions” (priority 2016, dated 2021):
Entries after “also recorded” stand apart in the source; their conditions may differ.

Key:
[1] = Blood brain barrier permeability, brain and plasma levels; type: in vivo, mouse; settings: WT and J20 mice
Procedure: FIG. 14: Selectivity and blood brain permeability of VX-765 and VRT-043198. (a-b) IC50 of VX-765 (a) and VRT-043198 (b) against human Casp1-10. (c-d) IC50 of VX-765 (c) and VRT-043198 (d) against mouse Casp1 and Casp11. (e) Blood brain barrier permeability and presence of VX-765 and VRT-043198 in 3 wild type and 4 J20 mice brain cortex and hippocampus and in plasma. Ratios of brain levels to plasma levels are calculated.

[2] = tested on: serum-deprived human neurons; assay: Aβ42/total Aβ and cytokine levels of serum-deprived human neurons; type: cell-based
Procedure: FIG. 13: VX-765 protects CNS primary human neurons (HPN) against APP- or serum deprivation-mediated neuritic beading. (a) MTT assay with increasing dose of VX-765. (b) Fluorescent micrographs showing homogeneous distribution of EGFP in normal neurons and neuritic beading in APP-transfected neurons. (c) Percentage beading in APP-transfected or serum-deprived neurons treated 1 h before and continuously with stressor (Pre-treatment) or 48 h after stressor (post-beading treatment) with 25 or 50 μM VX-765 or with 5 μM Z-YVAD-fmk Casp1 peptide inhibitor. […] (d-e) HPN secreted or cellular Aβ42/total Aβ38+40+42 (d) (F(3,4)=12.73, p=0.0163, ANOVA, Dunnett's post-hoc compared to Serum+DMSO, *p<0.05), and (e) levels of secreted II-1β, IFN-γ, TNF-α, and II-6 from untreated (+S), serum deprived (−S), or serum-deprived human neurons treated with 25 or 50 μM VX-765.

J20 mice = assay: Aβ immunostaining, thioflavin S and ELISA, treated symptomatic J20 mice brains; type: in vivo, mouse
Source text: FIG. 11: VX-765 prevents the progression of Aβ in J20 mice. (a) Aβ immunohistographs of the stratum lacunosum molecular layer of the hippocampus and S1 cortex of pre-treated 5-month old J20 (baseline) and 8-month old vehicle- or VX-765-treated WT or J20 mice with anti-F2576 antiserum (Scale bar=50 μm). (b) Quantitative analysis comparing Aβ immunostaining density between J20+Vehicle (n=5) and J20+VX-765 (n=4) mice in the hippocampus from the pyramidal cell layer to the stratum lacunosum molecular layer (p=0.0029) and cortex (p=0.0314, unpaired t test). (c) Quantitative analysis comparing RIPA-soluble Aβ42 over total Aβ (Aβ38+Aβ40+Aβ42) levels in pre-treated 5-month old J20, 8-month old vehicle- or VX-765 treated J20 mice hippocampus (F(2,9)=6.614, p=0.0171, ANOVA, Tukey's post-hoc, * p<0.05). No ELISA signal was obtained from WT mice brains. (d) RIPA-soluble total Aβ measured by ELISA in pg/mg brain tissue. (e,f) Formic acid soluble Aβ42 over total Aβ (Aβ38+Aβ40+Aβ42) (e) and total Aβ (f) levels measured by ELISA in pg/mg brain tissue. Student t-test used to assess difference between J20+vehicle and J20+VX-765. (g,h,i) RIPA-soluble and (j,k,l) formic acid soluble Aβ38, Aβ40, and Aβ42 measured by ELISA in pg/mg brain tissue. (m) APP mRNA and protein levels and (n) insulin degrading enzyme (IDE) and neprilysin mRNA levels (o) in hippocampus and cortex.
FIG. 19: Aβ stained with Thioflavin S or anti-Aβ1-40 F25276 antiserum in mice hippocampi or cortex. (a) Comparison of anti-Aβ immunostaining and thioflavin S stained Aβ in 8 month old vehicle-treated WT and J20 and in VX-765-treated J20 brain hippocampi and cortex (after T3). (b) Anti-Aβ F25276 immunopositive staining in 8 month old vehicle-treated J20, J20/Casp1−/−, and VX-765-treated (T3) mice hippocampi. (c) Higher magnification of Aβ and Iba1 immunopositive deposits in 8 month old vehicle-treated J20, J20/Casp1^−/−, and VX-765-treated (T3) mice hippocampi.
To assess AD-like pathology, immunohistochemical analyses were performed to detect amyloid deposition (anti-AβF25276)^5,6, microglial (Iba1) activation^7, astrogliosis (GFAP), synaptophysin protein levels on coronal brain sections. Multiplex MSD ELISA was used to assess Aβ levels and 38,40, and 42 subtypes, and II-1β brain levels. RT-PCR was used to assess levels of human APP^Sw/Ind.

blood brain barrier crossing [1]: crossed the blood brain barrier
metabolism of the pro-drug [1]: metabolized into VRT-043198
Structure (SMILES): CCO[C@@H]1OC(=O)C[C@@H]1NC(=O)[C@@H]1CCCN1C(=O)[C@@H](NC(=O)c1ccc(N)c(Cl)c1)C(C)(C)C [VX-765, (S)-1-((S)-2-{[1-(4-amino-3-chloro-phenyl)-methanoyl]-amino}-3,3-dimethyl-butanoyl)-pyrrolidine-2-carboxylic acid ((2R,3S)-2-ethoxy-5-oxo-tetrahydro-furan-3-yl)-amide]
concentrations in hippocampus and cortex [1]: reached physiologically active concentrations
secreted and cellular Aβ42/total Aβ levels ([2]; 25 μM): reduced secreted, but not cellular
secreted and cellular Aβ42/total Aβ levels ([2]; 50 μM): reduced secreted and cellular
levels of II-1β, IFN-γ, TNF-α, and II-6 ([2]; 25 and 50 μM, trend, not statistically significant): reduced at both concentrations
Aβ42 level in cortex (J20 mice; ELISA of RIPA-extracted brain proteins): reduced
formic acid soluble Aβ38, Aβ40, Aβ42 (J20 mice; hippocampal and cortical tissues): less abundant
RIPA soluble Aβ42 (J20 mice; hippocampus): reduced in the hippocampus
formic acid soluble Aβ42 over total Aβ38+40+42 (J20 mice; hippocampus): also reduced
RIPA-soluble Aβ42 over total Aβ38+40+42 (J20 mice; hippocampus and cortex): also reduced
formic acid soluble total Aβ (J20 mice; hippocampus and cortex): strongly decreased
deposited Aβ (thioflavin S, anti-Aβ immunostaining) (J20 mice; hippocampus and cortex, 50 mg/kg, 12 injections, vs vehicle-injected J20, 50 mg/kg): only retained rare amyloid deposits; also recorded: substantially reduced
